Test system: Candida albicans
Assay: Oral and parenteral in vivo efficacy in mice experimentally infected with Candida albicans (survival time)
Design: species or system Mäusen (Stamm HOE: NMRKF; SPF 71)
Conditions: for d̄ Tage: mean survival time of 5 mice; for Überlebenszeit in % (Standardpräp.= 100%): relative to Ketoconazol = 100%
Experimental: Zur Feststellung der oralen und parenteralen Wirksamkeit wurden Gruppen von je 5 18-20 g schweren Mäusen (Stamm HOE: NMRKF; SPF 71) mit 2 . 10^6 Keimen/Tier infiziert.
Die Behandlung der Tiere erfolgte oral bzw. subcutan in 8 gleichen Einzeldosen zu je 30 mg/kg bzw. 10 mg/kg Körpergewicht (-24/-18/-2h/+2/24/30/48/54h).
Neben der mit den erfindungsgemäßen Substanzen I behandelten Gruppe von 5 Tieren wurde zum Vergleich eine Gruppe von ebenfalls 5 Tieren mit der Referenzsubstanz Ketoconazol behandelt. Eine kontrollgruppe von 10 Tieren blieb nach der Infektion unbehandelt.

SMILES | d̄ Tage (Oral 8x10 mg/kg) | Überlebenszeit in % (Standardpräp.= 100%) (Oral 8x10 mg/kg) | d̄ Tage (Oral 8x30 mg/kg) | Überlebenszeit in % (Standardpräp.= 100%) (Oral 8x30 mg/kg) | d̄ Tage (Subcutan 8x10 mg/kg) | Überlebenszeit in % (Standardpräp.= 100%) (Subcutan 8x10 mg/kg) | d̄ Tage (Subcutan 8x30 mg/kg) | Überlebenszeit in % (Standardpräp.= 100%) (Subcutan 8x30 mg/kg)
OC(Cn1cncn1)(c1ccc(Cl)cc1)C1CC1c1ccc(Cl)cc1 (single isomer, unassigned) [34 b] | 11,6 Tage | 207,1% | 13,0 Tage | 162,5% | 11,0 Tage | 171,9% | 8,0 Tage | 100,0%
OC(Cn1cncn1)(c1ccc(Cl)cc1Cl)C1CC1c1ccc(Cl)cc1 (single isomer, unassigned) [29 a] | 6,8 Tage | 121,4% | 9,8 Tage | 122,5% | 7,2 Tage | 112,5% | 11,4 Tage | 142,5%
OC(Cn1cncn1)(c1ccc(F)cc1)C1CC1c1ccc(Cl)cc1Cl (single isomer, unassigned) [27 b] | 9,2 Tage | 164,3% | 11,6 Tage | 145,0% | 10,4 Tage | 162,5% | 12,6 Tage | 157,5%
CC(=O)N1CCN(c2ccc(OCC3COC(Cn4ccnc4)(c4ccc(Cl)cc4Cl)O3)cc2)CC1 (centres unmarked) [Ketoconazol, reference compound] | 5,6 Tage | 100,0% | 8,0 Tage | 100,0% | 6,4 Tage | 100,0% | 8,0 Tage | 100,0%
